Reference: patent US20250073180A1, “COMPOSITIONS COMPRISING NON-RACEMIC MIXTURES OF R- AND S-1,3-BUTANEDIOL AND USES THEREOF” (priority 2022, published 2025)

What was measured:
dogs = conditions: dietary levels of 0.5, 1.0 and 3.0% for two years; cited from earlier work
[1] = ECHA registration dossiers; cited from earlier work
rats = conditions: dietary levels of 1.0, 3.0 and 10% for two years; cited from earlier work
human volunteers = conditions: bolus doses of 0.5 g/kg bw or 0.7 g/kg bw; cited from earlier work
human subjects [2] = assay: Modified Beverage Tolerability Questionnaire (m-BTQ), acute pilot consumer study; assay type: in vivo
Experimental: (§1) Two scales were utilized: subjective effects with Biphasic Alcohol Effects Scale (BAES), a validated tool to measure the effects of drinking alcohol (Martin, C. S., et al. 1993. Alcoholism, Clinical and Experimental Research 17 (1): 140-46), and GI Tolerance with a Modified Beverage Tolerability Questionnaire (m-BTQ; Chen., 0. T., et al. 2021. Nutrients 13 (6): 2066). Participants were asked to fast for at least 2 hours before consuming the product, and complete the m-BTQ and BAES at 60 minutes following the consumption of the product.
(§2) The study population was 6 individuals between 25-40 years old. Questionnaires for the m-BTQ and BAES are provided below in Tables 1 and 2.
(§3) The six participants were between 25-40 years old, were 100% Caucasian and all (100%) identified as male.

human subjects [3] = assay: Biphasic Alcohol Effects Scale (BAES) questionnaire, acute pilot consumer study; assay type: in vivo; conditions: 60 minutes following consumption of 20 g in a beverage; n=3 per group
Experimental: as §1, §2, §3

[4] = 25 g/day for 28 consecutive days; cited from earlier work

SMILES: CC(O)CCO (stereo not drawn) [1,3-butanediol]
- Adverse effects attributable to ingestion (dogs): no adverse effects attributable to the ingestion
- Acute oral, inhalation and dermal toxicity [1]: low
- Adverse effects attributable to ingestion (rats): no adverse effects attributable to the ingestion
- Side effects of bolus doses (human volunteers): nausea, euphoria and dizziness

SMILES: C[C@@H](O)CCO [R-1,3-butanediol]
- Mean Composite Tolerability Score (m-BTQ) (human subjects [2]; 60 minutes following consumption of 20 g in a beverage, fasted at least 2 hours, n=3 per group): 8
- Tolerability (in words) (human subjects [2]; acute use, 20 g beverage, all participants): well tolerated by all participants
- Mean BAES-SED Composite Score (human subjects [3]): 22.3
- Mean BAES-STIM Composite Score (human subjects [3]): 41.7

SMILES: CCCCCC(=O)OCC[C@@H](C)OC(=O)CCCCC [BH-BD, bis-hexanoyl (R)-1,3-butanediol]
- Side effects and adverse events [4]: only mild side effects and no adverse events
